Reference: paper PMC8595372 (Nature Communications, 2021)
Where two headings read alike, the source gives them in different places. Each block holds one compound with its values, some of them ahead of it.

Tests used:
[1] = molecular target: T1, HIPK3 (Homo sapiens, UniProt Q9H422); assay: radioactive in vitro kinase assay, His-c-Myc substrate; assay type: biochemical
T1 construct: kinase domain, residues 159–562

[2] = molecular target: T2, DYRK1A (Homo sapiens, UniProt Q13627); assay: biochemical; parameters: nanoDSF thermal shift, Prometheus NT.48, 5 uM protein, ligand-induced melting temperature change versus buffer or DMSO control; settings: for ΔTm to control (°C): binder; for ΔTm at 1 µM / ΔTm at 10 µM / ΔTm at 100 µM: read-out: ΔTm to control (°C)
T2 construct: kinase domain, residues 127–485
Method: (§1) Nano-differential scanning fluorimetry measurements were performed for the determination of thermal protein stability using a Prometheus NT.48 (NanoTemper) device operating at the two wavelengths λ = 330 and 350 nm. […] The thermal stability was monitored from 20 to 70 °C at a heating rate of 1.5 °C/min using the PR.ThermControl software. […] Kinases were immobilized to the chip surface by amine coupling. […] Dissociation constants were determined based on fits applying a 1:1 interaction model. b Thermal protein stability measurements were performed using the NanoDSF technique. […] For raw data see Supplementary Table 3. Source data are provided as a Source Data file.

[3] = molecular target: T3, HIPK2 (Homo sapiens, UniProt Q9H2X6); assay: biochemical; parameters: nanoDSF thermal shift, Prometheus NT.48, 5 uM protein, ligand-induced melting temperature change versus buffer or DMSO control; settings: read-out: ΔTm to control (°C)
T3 construct: residues 160–563
T3 sequence (Q9H2X6 160-563): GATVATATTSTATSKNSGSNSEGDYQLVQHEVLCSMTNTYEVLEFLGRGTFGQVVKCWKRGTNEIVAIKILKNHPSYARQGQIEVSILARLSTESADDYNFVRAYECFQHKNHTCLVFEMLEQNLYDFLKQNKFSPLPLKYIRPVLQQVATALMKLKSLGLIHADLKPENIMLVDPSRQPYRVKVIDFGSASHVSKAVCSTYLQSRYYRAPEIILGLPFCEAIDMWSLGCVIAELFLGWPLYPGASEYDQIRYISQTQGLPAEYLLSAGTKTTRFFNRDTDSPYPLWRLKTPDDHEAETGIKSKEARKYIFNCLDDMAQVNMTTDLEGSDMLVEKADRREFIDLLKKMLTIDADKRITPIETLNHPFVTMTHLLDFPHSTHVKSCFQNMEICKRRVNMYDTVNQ
Method: as §1

[4] = molecular target: T4, HIPK1 (Homo sapiens, UniProt Q86Z02); assay: biochemical; parameters: nanoDSF thermal shift, Prometheus NT.48, 5 uM protein, ligand-induced melting temperature change versus buffer or DMSO control; settings: read-out: ΔTm to control (°C)
T4 construct: residues 154-554
T4 sequence (Q86Z02 154-554): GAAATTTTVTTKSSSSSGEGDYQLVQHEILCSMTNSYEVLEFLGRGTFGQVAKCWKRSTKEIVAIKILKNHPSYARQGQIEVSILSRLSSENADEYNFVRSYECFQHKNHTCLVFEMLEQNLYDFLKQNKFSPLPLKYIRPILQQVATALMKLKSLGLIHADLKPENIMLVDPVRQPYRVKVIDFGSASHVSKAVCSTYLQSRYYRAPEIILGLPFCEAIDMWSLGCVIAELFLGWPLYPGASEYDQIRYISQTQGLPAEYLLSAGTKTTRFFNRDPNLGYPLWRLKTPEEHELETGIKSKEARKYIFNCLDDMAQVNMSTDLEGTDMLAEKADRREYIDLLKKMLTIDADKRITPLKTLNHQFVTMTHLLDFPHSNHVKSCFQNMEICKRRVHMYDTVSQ
Method: as §1

[5] = molecular target: T5, Cdk4 (Homo sapiens, UniProt P11802); assay: biochemical; parameters: nanoDSF thermal shift, Prometheus NT.48, 5 uM protein, ligand-induced melting temperature change versus buffer or DMSO control; settings: read-out: ΔTm to control (°C)
T5 construct: full-length Cdk4 (residues 1–303) with Cyclin D3 (residues 1–292); with Cyclin D3
T5 sequence (P11802 whole entry, the tested form may be a part): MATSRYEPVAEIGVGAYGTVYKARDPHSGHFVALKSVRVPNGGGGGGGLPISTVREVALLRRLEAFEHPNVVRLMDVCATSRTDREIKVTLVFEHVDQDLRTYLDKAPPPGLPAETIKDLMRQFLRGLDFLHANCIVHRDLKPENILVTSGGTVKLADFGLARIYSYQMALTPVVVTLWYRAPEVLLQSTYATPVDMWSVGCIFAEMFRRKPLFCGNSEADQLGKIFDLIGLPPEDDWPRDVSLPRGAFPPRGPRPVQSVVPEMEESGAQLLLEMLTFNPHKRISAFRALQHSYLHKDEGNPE
T5 sequence (P30281 whole entry partner, the tested form may be a part): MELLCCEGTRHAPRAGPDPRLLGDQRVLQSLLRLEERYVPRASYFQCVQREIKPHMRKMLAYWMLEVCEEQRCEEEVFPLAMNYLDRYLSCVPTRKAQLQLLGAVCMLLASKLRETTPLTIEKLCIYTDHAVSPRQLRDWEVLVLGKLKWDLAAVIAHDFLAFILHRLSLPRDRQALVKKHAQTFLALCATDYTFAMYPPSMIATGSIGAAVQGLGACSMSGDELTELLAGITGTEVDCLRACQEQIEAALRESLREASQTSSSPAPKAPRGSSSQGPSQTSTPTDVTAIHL
Method: as §1

[6] = molecular target: T6, Cdk9 (Homo sapiens, UniProt P50750); assay: biochemical; parameters: nanoDSF thermal shift, Prometheus NT.48, 5 uM protein, ligand-induced melting temperature change versus buffer or DMSO control; settings: read-out: ΔTm to control (°C)
T6 construct: full-length Cdk9 (residues 1–372) with Cyclin T1 (residues 1–272); with Cyclin T1
T6 sequence (P50750 whole entry, the tested form may be a part): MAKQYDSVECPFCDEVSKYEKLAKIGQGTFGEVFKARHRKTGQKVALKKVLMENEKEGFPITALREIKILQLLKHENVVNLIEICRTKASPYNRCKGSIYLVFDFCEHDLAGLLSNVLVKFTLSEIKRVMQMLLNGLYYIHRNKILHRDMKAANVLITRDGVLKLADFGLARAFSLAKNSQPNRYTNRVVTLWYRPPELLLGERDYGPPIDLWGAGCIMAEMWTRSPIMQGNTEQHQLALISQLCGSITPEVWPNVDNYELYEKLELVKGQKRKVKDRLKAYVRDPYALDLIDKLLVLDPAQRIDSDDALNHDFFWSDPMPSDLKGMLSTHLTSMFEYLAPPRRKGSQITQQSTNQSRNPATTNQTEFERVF
T6 sequence (O60563 1-272 partner): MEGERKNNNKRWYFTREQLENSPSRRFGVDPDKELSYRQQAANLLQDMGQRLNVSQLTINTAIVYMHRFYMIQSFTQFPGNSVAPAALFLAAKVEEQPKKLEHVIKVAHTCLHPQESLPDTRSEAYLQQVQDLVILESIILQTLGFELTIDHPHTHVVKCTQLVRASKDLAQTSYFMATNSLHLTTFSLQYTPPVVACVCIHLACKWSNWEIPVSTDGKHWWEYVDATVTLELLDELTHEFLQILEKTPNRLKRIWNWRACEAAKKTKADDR
Method: as §1

[7] = molecular target: T1, HIPK3; assay: biochemical; parameters: nanoDSF thermal shift, Prometheus NT.48, 5 uM protein, ligand-induced melting temperature change versus buffer or DMSO control; settings: read-out: ΔTm to control (°C)
Method: as §1

[8] = molecular target: T1, HIPK3; assay: ([…] Å) and SPR; kinase assay IC50 […]; assay type: binding
[9] = molecular target: T4, HIPK1; assay: radioactive in vitro kinase assay; nanoDSF shift +[…] °C; assay type: biochemical
[10] = molecular target: T3, HIPK2; assay: SPR single-cycle kinetics; nanoDSF; kinase assay IC50 […]; assay type: binding

T1 sequence (Q9H422 159-562): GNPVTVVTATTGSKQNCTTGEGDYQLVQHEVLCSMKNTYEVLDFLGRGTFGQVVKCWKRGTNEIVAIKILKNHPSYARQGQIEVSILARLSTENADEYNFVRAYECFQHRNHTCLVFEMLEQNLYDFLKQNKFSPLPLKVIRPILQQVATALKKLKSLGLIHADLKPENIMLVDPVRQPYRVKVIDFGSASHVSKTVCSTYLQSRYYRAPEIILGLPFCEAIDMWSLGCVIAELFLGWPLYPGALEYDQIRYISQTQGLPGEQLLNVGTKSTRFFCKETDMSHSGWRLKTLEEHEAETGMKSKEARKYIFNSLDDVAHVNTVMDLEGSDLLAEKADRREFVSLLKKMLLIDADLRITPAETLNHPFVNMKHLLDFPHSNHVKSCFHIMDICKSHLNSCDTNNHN

SMILES: O=C1NC(=O)/C(=C/c2ccc3nccc(-c4ccncc4)c3c2)S1 [GSK1059615]
IC50 [1]: 1080 nM

SMILES: CCN1CCN(Cc2ccc(Nc3ncc(F)c(-c4cc(F)c5nc(C)n(C(C)C)c5c4)n3)nc2)CC1 [abemaciclib]
ΔTm at 1 µM [2]: 0.6 °C
ΔTm at 10 µM [2]: 3.1 °C
ΔTm at 100 µM [2]: 5.2 °C
ΔTm at 1 µM [3]: 1.5 °C
ΔTm at 10 µM [3]: 4.7 °C
ΔTm at 100 µM [3]: 7.2 °C
ΔTm at 1 µM [4]: 0.4 °C
ΔTm at 10 µM [4]: 6.4 °C
ΔTm at 100 µM [4]: 8.7 °C
ΔTm at 1 µM [5]: 4.1 °C
ΔTm at 100 µM [5]: 7.9 °C
ΔTm at 1 µM [6]: 0.6 °C
ΔTm at 10 µM [6]: 2.4 °C
ΔTm at 1 µM [7]: 0.2 °C
ΔTm at 10 µM [7]: 5.3 °C
ΔTm at 100 µM [7]: 7.4 °C
Kd [8]: 0.8 nM
IC50 [9]: 4530 nM
Kd [10]: 0.8 nM

The next lines start with the values.

ΔTm to control (°C) ([2]; 1 uM): -0.2 °C
ΔTm to control (°C) ([2]; 10 uM): +0.1 °C
ΔTm to control (°C) ([2]; 100 uM): 0.0 °C
SMILES: Nc1ncnc2c1ncn2[C@@H]1O[C@H](COP(=O)(O)OP(=O)(O)OP(=O)(O)O)[C@@H](O)[C@H]1O [ATP]

ΔTm at 1 µM [2]: -0.1 °C
ΔTm at 10 µM [2]: 0 °C
ΔTm at 100 µM [2]: -0.1 °C
SMILES: Nc1ncnc2c1ncn2[C@@H]1O[C@H](COP(=O)(O)OP(=O)(O)O)[C@@H](O)[C@H]1O [ADP]

IC50 ([1]; read-out: IC50): 1600 nM
SMILES: CN(C)C[C@H]1CC[C@H](N2C(=O)NCc3cnc4ccc(-c5cc(Cl)c(O)c(Cl)c5)cc4c32)CC1 [HTH-01-091]
